Reference: patent US12258344B2, “Azaaromatic amide derivatives for the treatment of cancer” (SHENZHEN FORWARD PHARMACEUTICALS CO., LTD., priority 2019, dated 2025)

Key:
Type in all cases: cell-based
BaF3 (EGFR/A763insFQEA) = BaF3 (EGFR/A763insFQEA) (Homo sapiens, UniProt P00533, INS763FQEA, cells depend on it); experiment: Test 14: EGFR exon 20 inserted A763insFQEA cell proliferation test; conditions: 72 hours, Cell Titer-Glo, read-out: Test 14 IC50
Experimental: Test 14: EGFR Exon 20 Inserted A763insFQEA Cell Proliferation Test
(§1) The number of viable cells in the culture was measured according to the protocol described in Promega's Cell Titer-Glo Luminescent cell Viability Assay (Promega catalog number #G7570). 90 μl of cells (3,000 cells/well) were cultured in growth medium in a Corning black transparent bottom 96-well plate, and cultured in a 5% CO2 humidified incubator at 37° C. overnight. The compound serially diluted in 100% DMSO was added to the cells using a pipette, and the cells were incubated for another 72 hours. 100 μl of the mixed Cell Titer-Glo reagent was added to the cells in the 96-well culture plate to lyse the cells and mix gently. Subsequently, the […] was detected on the Envision microplate detector to obtain the data of each compound. Finally, the data was input into a suitable software package (such as Prism) for curve fitting analysis.

BaF3 (EGFR/V769insASV) = BaF3 (EGFR/V769insASV) (Homo sapiens, UniProt P00533, DUP767-769, cells depend on it); experiment: Test 15: EGFR exon 20 inserted V769insASV cell proliferation test; conditions: 72 hours, Cell Titer-Glo, read-out: Test 15 IC50
Experimental: Test 15: EGFR Exon 20 Inserted V769insASV Cell Proliferation Test
as §1, with “(3000” for “(3,000”

BaF3 (EGFR/D770insSVD) [1] = biological target: T1, BaF3 (EGFR/D770insSVD) (Homo sapiens, UniProt P00533, DUP768-770, cells depend on it); experiment: Test 13: EGFR exon 20 inserted D770insSVD cell proliferation test; conditions: BaF3 (EGFR/D770insSVD), 72 hours, Cell Titer-Glo; read-out: Test 13 IC50
T1 construct: Test 13 IC50 (nM); other: BaF3 (EGFR/D770insSVD), 72 hours, Cell Titer-Glo
Experimental: (§2) Test 13: EGFR Exon 20 Inserted D770insSVD Cell Proliferation Test
as §1

BaF3 (EGFR/D770insSVD) [2] = biological target: T2, BaF3 (EGFR/D770insSVD) (Homo sapiens, UniProt P00533, cells depend on it, form not given); experiment: as above; conditions: A763insFQEA, V769insASV, D770insSVD (tests 13-15), in words
T2 construct: other: A763insFQEA, V769ins
T2 sequence (P00533 25-1210 limits assumed, stated change not applied): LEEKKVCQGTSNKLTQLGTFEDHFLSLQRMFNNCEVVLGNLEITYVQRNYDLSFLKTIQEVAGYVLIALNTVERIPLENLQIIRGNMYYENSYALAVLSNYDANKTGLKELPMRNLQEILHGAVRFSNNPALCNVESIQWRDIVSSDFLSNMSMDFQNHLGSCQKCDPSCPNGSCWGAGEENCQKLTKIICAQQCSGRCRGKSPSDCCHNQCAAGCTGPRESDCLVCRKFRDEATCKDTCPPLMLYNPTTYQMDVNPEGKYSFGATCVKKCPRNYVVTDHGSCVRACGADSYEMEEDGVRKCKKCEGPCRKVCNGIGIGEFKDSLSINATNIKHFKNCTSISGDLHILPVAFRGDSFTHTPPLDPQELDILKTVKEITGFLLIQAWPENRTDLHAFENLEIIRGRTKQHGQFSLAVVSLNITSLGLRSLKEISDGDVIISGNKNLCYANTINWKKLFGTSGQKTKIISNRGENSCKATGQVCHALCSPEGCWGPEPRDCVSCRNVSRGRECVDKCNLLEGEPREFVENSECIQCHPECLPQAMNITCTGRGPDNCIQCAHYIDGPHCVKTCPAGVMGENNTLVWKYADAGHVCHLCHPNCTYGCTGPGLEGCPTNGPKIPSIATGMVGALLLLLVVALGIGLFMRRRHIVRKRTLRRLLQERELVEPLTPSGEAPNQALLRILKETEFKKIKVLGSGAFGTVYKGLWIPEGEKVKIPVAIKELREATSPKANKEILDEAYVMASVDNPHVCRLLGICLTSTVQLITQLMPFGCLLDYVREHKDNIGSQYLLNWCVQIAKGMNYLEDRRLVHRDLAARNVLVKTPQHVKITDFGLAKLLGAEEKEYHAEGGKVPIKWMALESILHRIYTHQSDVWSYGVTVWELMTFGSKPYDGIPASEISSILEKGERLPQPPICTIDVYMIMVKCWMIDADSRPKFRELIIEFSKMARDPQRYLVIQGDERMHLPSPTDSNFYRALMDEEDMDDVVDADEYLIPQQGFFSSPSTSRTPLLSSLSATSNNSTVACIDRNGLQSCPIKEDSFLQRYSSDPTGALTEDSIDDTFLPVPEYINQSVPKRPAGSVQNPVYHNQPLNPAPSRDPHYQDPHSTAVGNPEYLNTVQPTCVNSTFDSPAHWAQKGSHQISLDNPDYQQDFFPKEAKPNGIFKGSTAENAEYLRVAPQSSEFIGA
Experimental: as §2, §1

[3] = tested on: NCI-H1975 (EGFR L858R/T790M double mutant); experiment: Test 1: EGFR L858R/T790M (EGFR double mutant) cell proliferation test; conditions: Homo sapiens; NCI-H1975 cells, 72 hours, Cell Titer-Glo
Experimental: Test 1: EGFR L858R/T790M (EGFR Double Mutant) Cell Proliferation Test
The human lung cell line NCI-H1975 (EGFR L858R/T790M double mutant) was obtained from the American Type Culture Collection. NCI-H1975 cells were cultured in RPMI1640 medium containing 10% fetal bovine serum and 2 mM glutamine. The cells were grown at 37° C. in a humidified incubator with 5% CO2.
as §1, with “(8,000” for “(3,000”

BaF3 (EGFR-V769insASV) = BaF3 (EGFR-V769insASV) (Homo sapiens, UniProt P00533, DUP767-769, cells depend on it); experiment: Test 4: BaF3 (EGFR-V769insASV) cell proliferation test; conditions: 72 hours, Cell Titer-Glo, read-out: Test 4 - IC50
BaF3 (EGFR-V769insASV), sequence (P00533 with tags, fused parts or gaps DUP767-769): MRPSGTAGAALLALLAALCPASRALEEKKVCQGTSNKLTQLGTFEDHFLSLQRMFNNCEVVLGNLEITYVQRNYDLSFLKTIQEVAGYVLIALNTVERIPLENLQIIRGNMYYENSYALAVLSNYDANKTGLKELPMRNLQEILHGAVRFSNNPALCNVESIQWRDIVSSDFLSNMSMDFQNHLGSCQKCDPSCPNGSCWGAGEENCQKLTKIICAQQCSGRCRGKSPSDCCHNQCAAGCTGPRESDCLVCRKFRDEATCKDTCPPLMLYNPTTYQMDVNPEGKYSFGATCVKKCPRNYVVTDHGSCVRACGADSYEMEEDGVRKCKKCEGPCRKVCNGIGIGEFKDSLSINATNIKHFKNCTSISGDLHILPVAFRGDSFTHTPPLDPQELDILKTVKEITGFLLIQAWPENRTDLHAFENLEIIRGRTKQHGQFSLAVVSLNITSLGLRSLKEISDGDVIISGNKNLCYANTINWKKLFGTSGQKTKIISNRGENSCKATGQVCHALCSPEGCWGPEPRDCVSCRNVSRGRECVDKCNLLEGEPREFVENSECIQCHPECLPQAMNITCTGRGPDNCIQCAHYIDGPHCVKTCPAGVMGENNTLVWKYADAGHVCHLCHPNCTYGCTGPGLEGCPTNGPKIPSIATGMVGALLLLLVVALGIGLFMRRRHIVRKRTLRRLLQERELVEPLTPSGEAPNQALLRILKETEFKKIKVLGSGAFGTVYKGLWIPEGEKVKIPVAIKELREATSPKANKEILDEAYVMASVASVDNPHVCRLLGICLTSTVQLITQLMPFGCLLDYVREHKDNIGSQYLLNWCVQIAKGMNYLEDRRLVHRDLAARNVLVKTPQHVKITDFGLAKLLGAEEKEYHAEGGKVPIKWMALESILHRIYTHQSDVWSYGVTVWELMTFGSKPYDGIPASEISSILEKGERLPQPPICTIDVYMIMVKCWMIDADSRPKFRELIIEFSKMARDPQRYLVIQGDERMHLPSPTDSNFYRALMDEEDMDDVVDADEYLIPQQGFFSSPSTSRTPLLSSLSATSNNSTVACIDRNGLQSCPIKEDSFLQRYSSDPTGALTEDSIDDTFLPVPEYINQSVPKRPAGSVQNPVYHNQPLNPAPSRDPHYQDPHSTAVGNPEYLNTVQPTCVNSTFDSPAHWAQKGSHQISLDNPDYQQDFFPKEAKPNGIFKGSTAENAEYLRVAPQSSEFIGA
Experimental: Test 4: BaF3 (EGFR-V769insASV) Cell Proliferation Test
BaF3 (EGFR-V769insASV) was cultured in RPMI1640 medium containing 10% fetal bovine serum and 2 mM glutamine. The cells were grown at 37° C. in a humidified incubator with 5% CO2.
as §1

BaF3 (EGFR-A763insFQEA) = BaF3 (EGFR-A763insFQEA) (Homo sapiens, UniProt P00533, INS763FQEA, cells depend on it); experiment: Test 3: BaF3 (EGFR-A763insFQEA) cell proliferation test; conditions: 72 hours, Cell Titer-Glo, read-out: Test 3 - IC50
BaF3 (EGFR-A763insFQEA), sequence (P00533 with tags, fused parts or gaps INS763FQEA): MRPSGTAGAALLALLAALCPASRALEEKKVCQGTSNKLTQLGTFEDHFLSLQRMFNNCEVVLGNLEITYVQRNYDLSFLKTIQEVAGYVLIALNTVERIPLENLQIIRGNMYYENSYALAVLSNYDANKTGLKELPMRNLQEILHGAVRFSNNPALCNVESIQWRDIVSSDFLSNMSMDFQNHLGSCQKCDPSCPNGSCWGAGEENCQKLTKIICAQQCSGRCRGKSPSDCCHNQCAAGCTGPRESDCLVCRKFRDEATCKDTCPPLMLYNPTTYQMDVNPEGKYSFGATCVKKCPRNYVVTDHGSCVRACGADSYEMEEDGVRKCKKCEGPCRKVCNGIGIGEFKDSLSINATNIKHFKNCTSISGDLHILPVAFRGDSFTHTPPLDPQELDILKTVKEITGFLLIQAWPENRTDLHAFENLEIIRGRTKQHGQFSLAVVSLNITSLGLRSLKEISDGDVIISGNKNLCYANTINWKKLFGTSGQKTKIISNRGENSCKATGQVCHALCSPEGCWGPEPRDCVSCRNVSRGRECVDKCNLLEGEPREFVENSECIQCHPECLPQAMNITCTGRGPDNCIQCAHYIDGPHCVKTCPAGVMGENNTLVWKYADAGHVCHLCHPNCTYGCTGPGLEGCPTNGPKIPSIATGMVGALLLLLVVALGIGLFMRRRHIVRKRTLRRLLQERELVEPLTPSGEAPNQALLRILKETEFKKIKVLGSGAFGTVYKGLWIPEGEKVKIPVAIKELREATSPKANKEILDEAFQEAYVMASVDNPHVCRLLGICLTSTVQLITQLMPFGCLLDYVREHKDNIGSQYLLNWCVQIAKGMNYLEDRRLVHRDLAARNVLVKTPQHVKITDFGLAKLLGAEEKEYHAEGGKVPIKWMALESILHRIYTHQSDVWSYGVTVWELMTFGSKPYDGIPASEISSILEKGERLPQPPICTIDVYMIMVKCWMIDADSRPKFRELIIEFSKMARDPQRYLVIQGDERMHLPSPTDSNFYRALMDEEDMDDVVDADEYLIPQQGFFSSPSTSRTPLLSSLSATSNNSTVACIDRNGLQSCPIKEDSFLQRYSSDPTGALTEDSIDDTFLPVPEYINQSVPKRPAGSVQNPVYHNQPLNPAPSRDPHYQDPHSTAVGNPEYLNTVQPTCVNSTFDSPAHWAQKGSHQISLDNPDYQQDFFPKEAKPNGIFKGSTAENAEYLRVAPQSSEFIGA
Experimental: Test 3: BaF3 (EGFR-A763insFOEA) Cell Proliferation Test
BaF3 (EGFR-A763insFQEA) was cultured in RPMI1640 medium containing 10% fetal bovine serum and 2 mM glutamine. The cells were grown at 37° C. in a humidified incubator with 5% CO2.
as §1

BaF3 (EGFR-D770insSVD) = BaF3 (EGFR-D770insSVD) (Homo sapiens, UniProt P00533, DUP768-770, cells depend on it); experiment: Test 2: BaF3 (EGFR-D770insSVD) cell proliferation test; conditions: 72 hours, Cell Titer-Glo, read-out: Test 2 - IC50
BaF3 (EGFR-D770insSVD), sequence (P00533 with tags, fused parts or gaps DUP768-770): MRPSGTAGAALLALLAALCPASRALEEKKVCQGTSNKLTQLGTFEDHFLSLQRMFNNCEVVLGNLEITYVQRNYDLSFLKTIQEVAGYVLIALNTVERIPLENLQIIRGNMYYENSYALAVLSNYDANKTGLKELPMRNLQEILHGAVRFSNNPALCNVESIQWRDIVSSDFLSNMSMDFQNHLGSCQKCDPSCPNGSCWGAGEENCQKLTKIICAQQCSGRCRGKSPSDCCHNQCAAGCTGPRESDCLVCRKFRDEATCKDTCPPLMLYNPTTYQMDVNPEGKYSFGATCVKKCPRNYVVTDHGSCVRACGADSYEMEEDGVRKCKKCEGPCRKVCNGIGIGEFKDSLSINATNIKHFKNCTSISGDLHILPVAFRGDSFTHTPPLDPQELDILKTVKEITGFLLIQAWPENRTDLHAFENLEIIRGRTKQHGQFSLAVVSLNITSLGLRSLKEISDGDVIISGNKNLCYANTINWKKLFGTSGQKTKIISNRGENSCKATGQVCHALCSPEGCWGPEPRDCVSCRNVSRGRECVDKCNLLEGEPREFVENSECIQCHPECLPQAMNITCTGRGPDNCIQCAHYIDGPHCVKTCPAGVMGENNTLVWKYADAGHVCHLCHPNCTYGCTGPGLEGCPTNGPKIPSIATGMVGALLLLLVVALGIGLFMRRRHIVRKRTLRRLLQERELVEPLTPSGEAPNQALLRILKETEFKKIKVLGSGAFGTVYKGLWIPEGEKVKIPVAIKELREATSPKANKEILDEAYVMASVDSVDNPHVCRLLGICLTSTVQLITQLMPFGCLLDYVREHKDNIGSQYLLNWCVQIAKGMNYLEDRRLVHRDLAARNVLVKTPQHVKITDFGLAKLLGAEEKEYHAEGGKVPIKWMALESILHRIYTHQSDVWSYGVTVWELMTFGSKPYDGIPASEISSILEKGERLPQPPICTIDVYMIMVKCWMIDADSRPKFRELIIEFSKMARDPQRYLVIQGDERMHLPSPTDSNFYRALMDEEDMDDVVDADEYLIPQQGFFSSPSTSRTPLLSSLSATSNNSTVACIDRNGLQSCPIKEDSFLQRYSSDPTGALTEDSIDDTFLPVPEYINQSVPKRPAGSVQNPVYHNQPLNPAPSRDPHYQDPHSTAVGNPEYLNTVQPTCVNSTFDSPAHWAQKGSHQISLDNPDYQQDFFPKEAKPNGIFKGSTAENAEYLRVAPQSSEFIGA
Experimental: Test 2: BaF3 (EGFR-D770insSVD) Cell Proliferation Test
BaF3 (EGFR-D770insSVD) was cultured in RPMI1640 medium containing 10% fetal bovine serum and 2 mM glutamine. The cells were grown at 37° C. in a humidified incubator with 5% CO2.
as §1

| SMILES | GI50 (BaF3 (EGFR/A763insFQEA)) [nM] | GI50 (BaF3 (EGFR/V769insASV)) [nM] | GI50 (BaF3 (EGFR/D770insSVD) [1]) [nM] | cell activity compared with Osimertinib (AZD9291) against EGFR exon 20 insertion mutations (BaF3 (EGFR/D770insSVD) [2]) | IC50 [3] [nM] | GI50 (BaF3 (EGFR-V769insASV)) [nM] | GI50 (BaF3 (EGFR-A763insFQEA)) [nM] | GI50 (BaF3 (EGFR-D770insSVD)) [nM] |
| --- | --- | --- | --- | --- | --- | --- | --- | --- |
| C=CC(=O)Nc1cc(Nc2ncnc(N3CC(C)(C)c4ncccc43)n2)c(OC)cc1N(C)CCN(C)C [Compound 17, N-(5-((4-(3,3-dimethyl-2,3-dihydro-1H-pyrrolo[3,2-b]pyridin-1-yl)-1,3,5-triazin-2-yl)amino)-2-((2-(dimethylamino)ethyl)(methyl)amino)-4-methoxyphenyl)acrylamide] | 14.7 | 36.4 | 58 | significant superior cell activity over Osimertinib (AZD9291) |  |  |  |  |
| C=CC(=O)Nc1cc(Nc2ncnc(-n3cc(C)c4cnccc43)n2)c(OC)cc1N(C)CCN(C)C [Compound 18, N-(2-((2-(dimethylamino)ethyl)(methyl)amino)-4-methoxy-5-((4-(3-methyl-1H-pyrrolo[3,2-c]pyridin-1-yl)-1,3,5-triazin-2-yl)amino)phenyl)acrylamide] | 131 | 244 | 320 | significant superior cell activity over Osimertinib (AZD9291) |  |  |  |  |
| C=CC(=O)Nc1cc(Nc2ncnc(-n3ccc4cnccc43)n2)c(OC)cc1N1CC[C@@H]1CN(C)C [Example 1, (R)—N-(5-((4-(1H-pyrrole[3,2-c]pyridin-1-yl)-1,3,5-triazin-2-yl)amino)-2-(2-((dimethylamino)methyl)azetidine-1-yl)-4-methoxyphenyl)acrylamide] |  |  |  |  | 19.8 | 386 | 280 | 412 |
| C=CC(=O)Nc1cc(Nc2nccc(-c3cnc4c(I)cccn34)n2)c(OC)cc1N(C)CCN(C)C [Example 4, N-(2-((2-(dimethylamino)ethyl)(methyl)amino)-4-methoxy-5-((4-(8-iodoimidazo[1,2-a]pyridin-3-yl)pyrimidin-2-yl)amino)phenyl)acrylamide] |  |  |  | significant superior cell activity over Osimertinib (AZD9291) | 66.7 | 470 | 313 | 592 |
| C=CC(=O)Nc1cc(Nc2nccc(-c3cnc4c(F)cccn34)n2)c(OC)cc1N(C)CCN(C)C [Example 5, N-(2-((2-(dimethylamino)ethyl)(methyl)amino)-5-((4-(8-fluoroimidazo[1,2-a]pyridin-3-yl)pyrimidin-2-yl)amino)-4-methoxyphenyl)acrylamide] |  |  |  | significant superior cell activity over Osimertinib (AZD9291) | 19.5 | 148 | 42.6 | 144 |
| C=CC(=O)Nc1cc(Nc2nccc(-c3cnc4c(C(F)(F)F)cccn34)n2)c(OC)cc1N(C)CCN(C)C [Example 6, N-(2-((2-(dimethylamino)ethyl)(methyl)amino)-4-methoxy-5-((4-(8-trifluoromethylimidazo[1,2-a]pyridin-3-yl)pyrimidin-2-yl)amino)phenyl)acrylamide] |  |  |  | significant superior cell activity over Osimertinib (AZD9291) | 91 | 477 | 277 | 518 |
